Biological target: T1, AsPC-1 HiBiT-KRASG12D (Homo sapiens, UniProt P01116, G12D)
T1 construct: insert the HiBiT tag onto the N-terminus of one or more of the endogenous KRAS alleles; endogenous in cells; host or cells: AsPC-1 (ATCC CRL-1682), CRISPR-Cas9 knock-in clone, one tagged allele
Test: HiBiT degradation assay (G12D), AsPC-1 HiBiT-KRASG12D cells
Assay type: cell-based
Details: 24 hours treatment; for Dmax: ASPC1, AsPC-1 HiBiT-KRASG12D cells, maximum degradation observed; for DC50: AsPC-1 HiBiT-KRASG12D cells, HiBiT luminescence
Summary of the method: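 Luminescence read-out of HiBiT-tagged endogenous KRASG12D in AsPC-1 cells after 24 h compound exposure at 37° C; lytic Nano-Glo HiBiT detection, 45 min at room temperature. A parallel alamar blue read (4 h) checked viability, normalized to DMSO-only controls.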

T1 sequence (P01116 1-188 isoform P01116-2 G12D): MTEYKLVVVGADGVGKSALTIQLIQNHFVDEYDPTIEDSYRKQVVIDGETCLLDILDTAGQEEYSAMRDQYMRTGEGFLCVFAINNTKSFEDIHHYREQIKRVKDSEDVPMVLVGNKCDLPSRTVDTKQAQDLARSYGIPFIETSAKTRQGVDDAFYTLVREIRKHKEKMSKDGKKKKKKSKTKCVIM

SMILES	Dmax [%]	DC50 [nM]
Cc1ncsc1-c1ccc([C@H](C)NC(=O)[C@@H]2C[C@@H](O)CN2C(=O)[C@H](c2cc(OC3CN(C(=O)OC[C@@H]4CC[C@@]5(COc6nc(N7CC8CCC(C7)N8)c7cnc(-c8cc(O)cc(Cl)c8C8CC8)c(F)c7n6)CCCN45)C3)no2)C(C)C)cc1 [Compound 322]	60 to 80	600 to 1000
C#Cc1c(F)ccc2cc(O)cc(-c3ncc4c(N5CC6CCC(C5)N6)nc(OCCN5CCC(CN6CCN(c7cc([C@@H](C(=O)N8C[C@H](O)C[C@H]8C(=O)N[C@@H](C)c8ccc(-c9ccnn9C)cc8)C(C)C)on7)CC6)CC5)nc4c3F)c12 [Compound 170, (2S,4R)-1-[(2S)-2-(3-{4-[(1-{2-[(4-{3,8-diazabicyclo[3.2.1]octan-3-yl}-7-(8-ethynyl-7-fluoro-3-hydroxynaphthalen-1-yl)-8-fluoropyrido[4,3-d]pyrimidin-2-yl)oxy]ethyl}piperidin-4-yl)methyl]piperazin-1-yl}-1,2-oxazol-5-yl)-3-methylbutanoyl]-4-hydroxy-N-[(1S)-1-[4-(1-methyl-1H-pyrazol-5-yl)phenyl]ethyl]pyrrolidine-2-carboxamide]	20 to 60	1000 to 3000
C#Cc1c(F)ccc2cc(O)cc(-c3ncc4c(N5CC6CCC(C5)N6)nc(OCCN5CCC6(CC5)CN(c5cc([C@H](C(=O)N7C[C@H](O)C[C@H]7C(=O)N[C@@H](C)c7ccc(-c8scnc8C)cc7)C(C)C)on5)C6)nc4c3F)c12 [Compound 33, (2S,4R)-1-[(2R)-2-[3-(7-{2-[(4-{3,8-diazabicyclo[3.2.1]octan-3-yl}-7-(8-ethynyl-7-fluoro-3-hydroxynaphthalen-1-yl)-8-fluoropyrido[4,3-d]pyrimidin-2-yl)oxy]ethyl}-2,7-diazaspiro[3.5]nonan-2-yl)-1,2-oxazol-5-yl]-3-methylbutanoyl]-4-hydroxy-N-[(1S)-1-[4-(4-methyl-1,3-thiazol-5-yl)phenyl]ethyl]pyrrolidine-2-carboxamide]	80 to 100	< 600
CCc1cccc2cc(O)cc(-c3ncc4c(N5C[C@H]6CC[C@@H](C5)N6)nc(OCCN5CCC(C)(CN6CCN(c7cc([C@@H](C(=O)N8C[C@H](O)C[C@H]8C(=O)N[C@@H](C)c8ccc(-c9scnc9C)cc8)C(C)C)on7)CC6)CC5)nc4c3F)c12 [Compound 188, (2S,4R)-1-((S)-2-(3-(4-((1-(2-((4-((1R,5S)-3,8-diazabicyclo[3.2.1]octan-3-yl)-7-(8-ethyl-3-hydroxynaphthalen-1-yl)-8-fluoropyrido[4,3-d]pyrimidin-2-yl)oxy)ethyl)-4-methylpiperidin-4-yl)methyl)piperazin-1-yl)isoxazol-5-yl)-3-methylbutanoyl)-4-hydroxy-N—((S)-1-(4-(4-methylthiazol-5-yl)phenyl)ethyl)pyrrolidine-2-carboxamide]	20 to 60	1000 to 3000
CCc1cccc2cc(O)cc(-c3ncc4c(N5CC6CCC(C5)N6)nc(OC[C@]56CCCN5[C@@H](COC(=O)NCc5cc([C@H](C(=O)N7C[C@H](O)C[C@H]7C(=O)N[C@@H](C)c7ccc(-c8scnc8C)cc7)C(C)C)on5)CC6)nc4c3F)c12 [Compound 102, [(3R,7aR)-7a-{[(4-{3,8-diazabicyclo[3.2.1]octan-3-yl}-7-(8-ethyl-3-hydroxynaphthalen-1-yl)-8-fluoropyrido[4,3-d]pyrimidin-2-yl)oxy]methyl}-hexahydro-1H-pyrrolizin-3-yl]methyl N-({5-[(2R)-1-[(2S,4R)-4-hydroxy-2-{[(1S)-1-[4-(4-methyl-1,3-thiazol-5-yl)phenyl]ethyl]carbamoyl}pyrrolidin-1-yl]-3-methyl-1-oxobutan-2-yl]-1,2-oxazol-3-yl}methyl) carbamate]	80 to 100	< 600
Cc1ncsc1-c1ccc([C@H](C)NC(=O)[C@@H]2C[C@@H](O)CN2C(=O)[C@@H](c2cc(OCC3CCN(CCOc4nc(N5CC6CCC(C5)N6)c5cnc(-c6cc(O)cc(Cl)c6C(F)(F)F)c(F)c5n4)CC3)no2)C(C)C)cc1 [Compound 24, (2S,4R)-1-[(2R)-2-[3-({1-[2-({7-[3-chloro-5-hydroxy-2-(trifluoromethyl)phenyl]-4-{3,8-diazabicyclo[3.2.1]octan-3-yl}-8-fluoropyrido[4,3-d]pyrimidin-2-yl}oxy)ethyl]piperidin-4-yl}methoxy)-1,2-oxazol-5-yl]-3-methylbutanoyl]-4-hydroxy-N-[(1S)-1-[4-(4-methyl-1,3-thiazol-5-yl)phenyl]ethyl]pyrrolidine-2-carboxamide]	80 to 100	< 600
C#Cc1c(F)ccc2cc(O)cc(-c3ncc4c(N5CC6CCC(C5)N6)nc(OCCN5CCC6(CC5)CC(Oc5cc([C@H](C(=O)N7C[C@H](O)C[C@H]7C(=O)N[C@@H](C)c7ccc(-c8scnc8C)cc7)C(C)C)on5)C6)nc4c3F)c12 [Compound 161, (2S,4R)-1-[(2R)-2-{3-[(7-{2-[(4-{3,8-diazabicyclo[3.2.1]octan-3-yl}-7-(8-ethynyl-7-fluoro-3-hydroxynaphthalen-1-yl)-8-fluoropyrido[4,3-d]pyrimidin-2-yl)oxy]ethyl}-7-azaspiro[3.5]nonan-2-yl)oxy]-1,2-oxazol-5-yl}-3-methylbutanoyl]-4-hydroxy-N-[(1S)-1-[4-(4-methyl-1,3-thiazol-5-yl)phenyl]ethyl]pyrrolidine-2-carboxamide]	80 to 100	< 600
CCc1cccc2cc(O)cc(-c3ncc4c(N5CC6CCC(C5)N6)nc(OCCN5CC[C@H]6[C@H](CCN6c6cc([C@@H](C(=O)N7C[C@H](O)C[C@H]7C(=O)N[C@@H](C)c7ccc(-c8scnc8C)cc7)C(C)C)on6)C5)nc4c3F)c12 (relative stereo) [Compound 75, (2S,4R)-1-[(2R*)-2-{3-[(3aR**,7aR***)-5-{2-[(4-{3,8-diazabicyclo[3.2.1]octan-3-yl}-7-(8-ethyl-3-hydroxynaphthalen-1-yl)-8-fluoropyrido[4,3-d]pyrimidin-2-yl)oxy]ethyl}-octahydro-1H-pyrrolo[3,2-c]pyridin-1-yl]-1,2-oxazol-5-yl}-3-methylbutanoyl]-4-hydroxy-N-[(1S)-1-[4-(4-methyl-1,3-thiazol-5-yl)phenyl]ethyl]pyrrolidine-2-carboxamide]	60 to 80	1000 to 3000
CCc1cccc2cc(O)cc(-c3ncc4c(N5CC6CCC(C5)N6)nc(OC[C@]56CCCN5[C@H](COC(=O)N5CCN(c7cc([C@H](C(=O)N8C[C@H](O)C[C@H]8C(=O)N[C@@H](C)c8ccc(-c9scnc9C)cc8)C(C)C)on7)[C@@H](C)C5)CC6)nc4c3F)c12 [Compound 123, [(3S,7aR)-7a-{[(4-{3,8-diazabicyclo[3.2.1]octan-3-yl}-7-(8-ethyl-3-hydroxynaphthalen-1-yl)-8-fluoropyrido[4,3-d]pyrimidin-2-yl)oxy]methyl}-hexahydro-1H-pyrrolizin-3-yl]methyl (3S)-4-{5-[(2R)-1-[(2S,4R)-4-hydroxy-2-{[(1S)-1-[4-(4-methyl-1,3-thiazol-5-yl)phenyl]ethyl]carbamoyl}pyrrolidin-1-yl]-3-methyl-1-oxobutan-2-yl]-1,2-oxazol-3-yl}-3-methylpiperazine-1-carboxylate]	80 to 100	< 600
CCc1cccc2cc(O)cc(-c3ncc4c(N5CC6CCC(C5)N6)nc(OC[C@@H]5CC[C@H](COC(=O)N6CCN(c7cc([C@H](C(=O)N8C[C@H](O)C[C@H]8C(=O)N[C@@H](C)c8ccc(-c9scnc9C)cc8)C(C)C)on7)CC6)N5C)nc4c3F)c12 [Compound 259, [(2R,5S)-5-{[(4-{3,8-diazabicyclo[3.2.1]octan-3-yl}-7-(8-ethyl-3-hydroxynaphthalen-1-yl)-8-fluoropyrido[4,3-d]pyrimidin-2-yl)oxy]methyl}-1-methylpyrrolidin-2-yl]methyl 4-{5-[(2R)-1-[(2S,4R)-4-hydroxy-2-{[(1S)-1-[4-(4-methyl-1,3-thiazol-5-yl)phenyl]ethyl]carbamoyl}pyrrolidin-1-yl]-3-methyl-1-oxobutan-2-yl]-1,2-oxazol-3-yl}piperazine-1-carboxylate]	80 to 100	< 600
CCc1cccc2cc(O)cc(-c3ncc4c(N5CC6CCC(C5)N6)nc(OC[C@@]56CCCN5[C@H](COC(=O)N5CC(COc7cc([C@H](C(=O)N8C[C@H](O)C[C@H]8C(=O)N[C@@H](C)c8ccc(-c9scnc9C)cc8)C(C)C)on7)C5)CC6)nc4c3F)c12 [Compound 114, [(3S,7aS)-7a-{[(4-{3,8-diazabicyclo[3.2.1]octan-3-yl}-7-(8-ethyl-3-hydroxynaphthalen-1-yl)-8-fluoropyrido[4,3-d]pyrimidin-2-yl)oxy]methyl}-hexahydro-1H-pyrrolizin-3-yl]methyl 3-[({5-[(2R)-1-[(2S,4R)-4-hydroxy-2-{[(1S)-1-[4-(4-methyl-1,3-thiazol-5-yl)phenyl]ethyl]carbamoyl}pyrrolidin-1-yl]-3-methyl-1-oxobutan-2-yl]-1,2-oxazol-3-yl}oxy)methyl]azetidine-1-carboxylate]	80 to 100	< 600
Cc1ncsc1-c1ccc([C@H](C)NC(=O)[C@@H]2C[C@@H](O)CN2C(=O)[C@@H](c2cc(OCC3CCN(CCOc4nc(N5CC6CCC(C5)N6)c5cnc(-c6cc(O)cc7cccc(C)c67)c(F)c5n4)CC3)no2)C(C)C)cc1 [Compound 60, (2S,4R)-1-[(2R)-2-{3-[(1-{2-[(4-{3,8-diazabicyclo[3.2.1]octan-3-yl}-8-fluoro-7-(3-hydroxy-8-methylnaphthalen-1-yl)pyrido[4,3-d]pyrimidin-2-yl)oxy]ethyl}piperidin-4-yl)methoxy]-1,2-oxazol-5-yl}-3-methylbutanoyl]-4-hydroxy-N-[(1S)-1-[4-(4-methyl-1,3-thiazol-5-yl)phenyl]ethyl]pyrrolidine-2-carboxamide]	60 to 80	< 600
